Data: publication PMC10914731, “Homo-BacPROTAC-induced degradation of ClpC1 as a strategy against drug-resistant mycobacteria” (Nature Communications, 2024)
Where “and” joins values, the source holds several entries; their conditions need not be identical. Equal values may be shown once. Read-outs that look alike come from different tables or passages of the source.

Assays:
[1] = Microsomal stability, human; assay type: in vitro ADME
Outline: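 1 µmol/l cpd + 0.5 mg/ml microsomes, Tris-HCl 100 mM pH 7.5 / MgCl2 6.5 mM / NADPH 1 mM, 37 °C. Timed acetonitrile quench, spin, supernatant by HPLC-MS/MS. t1/2 from first-order decay → clearance %Qh, well-stirred model.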

[2] = Hepatocyte stability, mice; assay type: in vitro ADME
Outline: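 1 µM cpd (DMSO <0.05% final), cryopreserved hepatocytes ~1e6 cells/mL, 50% serum, pH 7.4, 37 °C/5–10% CO2; up to 6 h, 6 timepoints; ACN quench, HPLC-MS/MS; t1/2 → CL via well-stirred model, % Qh.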

Enterococcus faecium = test: MIC ESKAPES panel, Enterococcus faecium; assay type: cell-based
Description: Minimum inhibitory concentration (MIC) against ESKAPES panel of Gram positive and Gram negative pathogens (Enterococcus faecium, Staphylococcus aureus, Klebsiella pneumoniae, Acinetobacter baumannii, Pseudomonas aeruginosa, Enterobacter cloacae and Salmonella typhimurium [ESKAPES panel]) were determined at the FNDR by the standard broth dilution method [CLSI, M100]. […] Mueller Hinton broth (MHB) medium was used to grow ESKAPES panel strains. The individual cultures were added as 200 μL (inoculum of 3–7 × 10^5 cfu/ml) to the respective assay plates in each well to all columns, except the media control (200 μL of medium). […] The assay plates were incubated at 37 °C, and the results were noted on the 2nd day as turbidometric readout. The clear wells indicated inhibition of growth, while the turbid wells indicated uninhibited growth.

Mycobacterium avium = test: microbe, parasite or virus in culture; assay type: cell-based
Mycobacterium fortuitum = test: microbe, parasite or virus in culture; assay type: cell-based
in vivo = assay type: in vivo, BALB/cAnNCrl mice; conditions: for Plasma concentration 6 h / Plasma concentration 24 h / AUC0-inf/Dose / AUC0-t/Dose / CL / CL PL QH / Cmax/Dose / MRT / Plasma concentration 0.1 h / Plasma concentration 0.5 h / Plasma concentration 1 h / Plasma concentration 2 h / Plasma concentration 4 h / Vss / t1/2: iv bolus; for Plasma concentration 6 h / Plasma concentration 24 h: BLOQ <1.00 nmol/l
Description: The in-life experimental procedures were conducted in strict compliance with German and European animal welfare legislation in an AAALAC-accredited facility. Male BALB/cAnNCrl mice (Charles River Laboratories Research Models and Services, 97633 Sulzfeld, Germany) were used. Animals were 9 weeks old at dosing with a body weight of 21.6–24.3 g. Animals were delivered free of pathogens according to FELASA recommendations with a health certificate provided by the breeder. Upon receipt, the state of health and sex was checked. Animals acclimatized for at least 5 days before the commencement of the in-life phase. During acclimation, animals were group-housed in individually ventilated cages, on birch wood granulate bedding with species-specific enrichment (nesting material, mouse igloo, gnawing wood). During experimental conduct, animals were housed in conventional cages with elevated grid floors. Grid floor was used to avoid contamination with test item material excreted via urine and feces and subsequent reuptake during fur grooming. No bedding and enrichment were provided except a cage divider, which can be used as a shelter. Animals always had unlimited access to food and water and received a pelleted, total pathogen-free maintenance diet and tap drinking water, sterilized by filter.
In case of incomplete dissolution, the formulation was filtered at 40 °C (non-pyrogenic sterile-R filter, 0.2 µm). All formulations were stirred warm until administration. Actual test item content was determined bioanalytically.
Male BALB/cAnNCrl mice (n = 3 per test item and administration route) received a bolus dose of the formulated test item(s) (1 mg/kg iv, 30 mg/kg po) at t = 0 h, and whole blood samples were collected subsequently (35 µl at 0.1 (iv) / 0.25 (po), 0.5, 1, 2, 4, 6 h; 600 µl at sacrifice after 24 h). Animals were euthanized by exsanguination in deep isoflurane anesthesia. Whole blood samples were immediately stored on ice at about 4 °C. Plasma was separated by centrifugation at approximately 10,000 × g for 5 m at +4 °C. Centrifugation of each blood sample was started within 10 m after collection. A single aliquot of at least 15 µL of plasma was prepared and immediately stored at −20 ± 5 °C.
Sample proteins were precipitated with ACN (1 + 12, v/v) containing internal standard, and supernatants analyzed by quantitative UPLC-MS/MS: Phenomenex Luna Omega C18, 2.1 × 50 mm, 1.6 µm, 40 °C, gradient between 10% - 90% ACN with 0.1% formic acid. LogD determination: Lipophilicity of the test items, expressed as chromLogD7.5, was assessed by measuring their chromatographic retention times on C18-material. The chromatographic retention versus logD7.5 values of a series of thirteen n-alkan-2-ones (2-butanone – 2-hexadecanone) served as lipophilicity calibration.

[3] = Experiment 2, three replicate columns
[4] = dose-normalized, mice, 1 mg kg-1 iv bolus
[5] = individual animals 1-3, listed as 8 (UdSBI-0545)

With `COC(c1ccccc1)C1NC(=O)C(C)NC(=O)C(CC(C)CO)N(C)C(=O)C(Cc2cn(Cc3cn(CCOCCOCCOCCOCCn4cc(Cn5cc(CC6NC(=O)C(C(C)C)NC(=O)C(CC(C)C)N(C)C(=O)C(C(C)C)NC(=O)C(C(OC)c7ccccc7)NC(=O)C(C)NC(=O)C(CC(C)CO)N(C)C6=O)c6ccccc65)nn4)nn3)c3ccccc23)NC(=O)C(C(C)C)NC(=O)C(CC(C)C)N(C)C(=O)C(C(C)C)NC1=O` (centres unmarked) [Compound 8] the “Microsomal Stability Human QH” value ([1]; Human) was >88.4 >88.4 >88.4%, the “Microsomal Stability Human” value ([1]; clearance in microsomes) was greater than 88 %Qh and the “Hepatocyte Stability Mouse QH” value ([2]; Mouse) was 50.268%. The “Hepatocyte Mice” value ([2]; clearance in hepatocytes) was 32 %Qh, the MIC (Enterococcus faecium; Enterococcus faecium, Gram positive, n = 3 well replicates) was greater than 50 µM and the MIC (Enterococcus faecium; Enterococcus faecium, Gram-Positive Bacteria, replicates 1-3) was greater than 109 µg/mL. For the same molecule, the MIC (Enterococcus faecium; Gram-Positive Bacteria, replicates 1-3, listed as 8 (UdSBI-0545)) was greater than 50 µM, the MIC (Mycobacterium avium; Experiment 1, listed as 8 (UdSBI-0545), read-out: MIC Mycobacterium avium) was greater than 50 µM and the “MIC (µg/ml) Mycobacterium avium” value (Mycobacterium avium; [3]) was greater than 108.53 µg/mL. The MIC (Mycobacterium avium; Experiment 2, three replicate columns, read-out: MIC (µM) Mycobacterium avium) was greater than 50 µM, the MIC (Mycobacterium avium; Mycobacterium avium, Experiment 1, read-out: MIC Mycobacterium avium) was greater than 109 µg/mL and the MIC (Mycobacterium avium; Mycobacterium avium, Experiment 2, three replicate columns, read-out: MIC (µM) Mycobacterium avium) was greater than 50 µM. It also gave an MIC (Mycobacterium avium; Mycobacterium avium, Experiment 2, three replicate columns, read-out: MIC (µg/ml) Mycobacterium avium) greater than 109 µg/mL, an MIC (Mycobacterium avium; Mycobacterium avium, mean ± SD, read-out: MIC Mycobacterium avium) greater than 50 µM and an MIC (Mycobacterium fortuitum; Experiment 1, listed as 8 (UdSBI-0545), read-out: MIC Mycobacterium fortuitum) greater than 50 µM. The “MIC (µg/ml) Mycobacterium fortuitum” value (Mycobacterium fortuitum; [3]) was greater than 108.53 µg/mL, the MIC (Mycobacterium fortuitum; Experiment 2, three replicate columns, read-out: MIC (µM) Mycobacterium fortuitum) was greater than 50 µM and the MIC (Mycobacterium fortuitum; Mycolicibacterium fortuitum, Experiment 1, read-out: MIC Mycobacterium fortuitum) was greater than 109 µg/mL. For the same molecule, the MIC (Mycobacterium fortuitum; Mycolicibacterium fortuitum, Experiment 2, three replicate columns, read-out: MIC (µM) Mycobacterium fortuitum) was greater than 50 µM, the MIC (Mycobacterium fortuitum; Mycolicibacterium fortuitum, Experiment 2, three replicate columns, read-out: MIC (µg/ml) Mycobacterium fortuitum) was greater than 109 µg/mL and the MIC (Mycobacterium fortuitum; Mycolicibacterium fortuitum, mean ± SD, read-out: MIC Mycobacterium fortuitum) was greater than 50 µM. For the same molecule, the AUC (in vivo; [4]) was 8580 h nM/(nmol kg-1), the Cmax (in vivo; [4]) was 6710 nM/(nmol kg-1) and the “Plasma concentration 6 h” value (in vivo; [5]) was 90.8 nM and 118 nM and 77.8 nM. For the same molecule, the “Plasma concentration 24 h” value (in vivo; [5]) was 14.8 nM and 18.2 nM and 13.3 nM, the AUC0-inf/Dose (in vivo; [5]) was 7860 h nM/(nmol kg-1) and 10400 h nM/(nmol kg-1) and 8420 h nM/(nmol kg-1) and the AUC0-t/Dose (in vivo; [5]) was 7540 h nM/(nmol kg-1) and 10000 h nM/(nmol kg-1) and 8140 h nM/(nmol kg-1). The CL (in vivo; [5]) was 2.1 mL/min/kg and 1.6 mL/min/kg and 2.0 mL/min/kg, the “CL PL QH” value (in vivo; [5]) was 2.4% and 1.8% and 2.2% and the Cmax/Dose (in vivo; [5]) was 5300 nM/(nmol kg-1) and 7400 nM/(nmol kg-1) and 7420 nM/(nmol kg-1). The MRT (in vivo; [5]) was 4.5 h and 4.3 h and 3.8 h, the “Plasma concentration 0.1 h” value (in vivo; [5]) was 2440 nM and 3410 nM and 3420 nM and the “Plasma concentration 0.5 h” value (in vivo; [5]) was 1650 nM and 1900 nM and 1850 nM. The “Plasma concentration 1 h” value (in vivo; [5]) was 655 nM and 1140 nM and 855 nM, the “Plasma concentration 2 h” value (in vivo; [5]) was 328 nM and 402 nM and 307 nM and the “Plasma concentration 4 h” value (in vivo; [5]) was 110 nM and 144 nM and 117 nM. For the same molecule, the Vss (in vivo; [5]) was 0.6 L/kg and 0.4 L/kg and 0.5 L/kg, the t1/2 (in vivo; [5]) was 6.9 h and 6.7 h and 6.6 h and the AUC0-inf/Dose (in vivo; mice, Mean) was 8900 h nM/(nmol kg-1). The AUC0-t/Dose (in vivo; mice, Mean) was 8580 h nM/(nmol kg-1), the CL (in vivo; mice, Mean) was 1.9 mL/min/kg and the “CL PL QH” value (in vivo; mice, Mean) was 2.1%. The Cmax/Dose (in vivo; mice, Mean) was 6710 nM/(nmol kg-1), the MRT (in vivo; mice, Mean) was 4.2 h and the “Plasma concentration 0.1 h” value (in vivo; mice, Mean) was 3090 nM. The “Plasma concentration 0.5 h” value (in vivo; mice, Mean) was 1800 nM, the “Plasma concentration 1 h” value (in vivo; mice, Mean) was 883 nM and the “Plasma concentration 2 h” value (in vivo; mice, Mean) was 346 nM. The “Plasma concentration 4 h” value (in vivo; mice, Mean) was 124 nM, the Vss (in vivo; mice, Mean) was 0.5 L/kg and the t1/2 (in vivo; mice, Mean) was 6.7 h. The “Plasma concentration 6 h” value (in vivo; mice, Mean) was 95.5 nM, the “Plasma concentration 24 h” value (in vivo; mice, Mean) was 15.4 nM and the VSS (in vivo; mice, 1 mg kg-1 iv bolus) was 0.48 L/kg. The Cl (in vivo; plasma clearance, mice, 1 mg kg-1 iv bolus) was 1.90 mL/min/kg and the T1/2 (in vivo; plasma, mice, 1 mg kg-1 iv bolus) was 6.74 h.
